Columns and labels:
[1] = test system: NFκB; test: NFκB-Luc reporter in HaCaT keratinocytes; assay type: cell-based, human; settings: 100 nM
Description: HaCaT keratinocytes were transfected with NFκB-Luc construct using Lipofectamine Plus (Invitrogen, Carlsbad, Calif.) in DMEM medium with firefly luciferase reporter gene plasmid and with phRL-TK (expresses Renilla luciferase and serves as normalization control; Promega, Madison, Wis.). After transfection cells were incubated for 24 h in complete medium, and then after change to fresh media treated with drug or vehicle (ethanol) at the concentration of 10 nM for 30 minutes, 1 h, 4 h, 16 h and 24 h. The firefly luciferase and Renilla luciferase signals were recorded with a TD-20/20 luminometer (Turner Designs, Sunnyvale, Calif.); background luminescence was subtracted and the resulting promoter specific firefly signal was divided by the Renilla signal (proportional to the number of transfected cells). The values obtained were divided by the mean of control (untreated) cells.

[2] = test system: SK Mel 188 human melanoma cells; test: Soft agar colony formation, SKMEL 188 melanoma; assay type: cell-based
Description: Growth and survival of prostate cancer cells (PC3) and melanoma cells SKMEL 188 and AbC1 was determined by following their ability to form colonies in soft agar. Cells growing in monolayer culture were trypsinized and resuspended (1,000 cells/well) in 0.25 ml medium containing 0.4% agarose and 5% charcoal stripped serum (HyClone).
Cell suspensions were added to 0.8% agar layer in 24 well plates. […] Each condition was tested in quadruplicate. An ethanol solvent control (amount of ethanol equivalent to test) as well as a media-only control was included in the assay. Cells were allowed to grow at 37° with 5% CO2 over two weeks with secosteroids in fresh media (100 μL) being added after every 72 h. Soft agar colonies were scored and stained with 0.5 mg/ml MTT reagent (Promega), 500 μL/well after two weeks. Colonies were then counted under the microscope and number of units was calculated as number of colonies formed divided by the number of cells seeded×100.

[3] = test system: CYP24 promoter; test: CYP24-Luc reporter in normal epidermal keratinocytes; assay type: cell-based, human; settings: 24 h
Description: The CYP24-Luc construct was a generous gift from Dr Tai Cheng (Boston University Medical Campus, Core Lab Director). It was originally developed by Vaisanen et al. (27). The details of the pLuc construct have been described previously (28-29). Normal epidermal keratinocytes were transfected using Lipofectamine Plus (Invitrogen, Carlsbad, Calif.) in Epilife medium with firefly luciferase reporter gene plasmid and with phRL-TK (expresses Renilla luciferase and serves as normalization control; Promega, Madison, Wis.). After transfection, cells were incubated for 24 hours in EpiLife medium with HKGS. Cells were then transferred to fresh media containing the compounds to be tested or vehicle (ethanol) and incubated for 24 hours. The firefly luciferase and Renilla luciferase signals were recorded with a TD-20/20 luminometer (Turner Designs, Sunnyvale, Calif.); background luminescence was subtracted and the resulting promoter-specific firefly signal was divided by the Renilla signal (proportional to the number of transfected cells). The values obtained were divided by the mean of control (untreated) cells.

[4] = test system: Human dermal fibroblasts; test: TGF-b1 induced collagen protein production by dermal fibroblasts; assay type: cell-based; settings: collagenase sensitive protein; for TGF-b1 induced collagen protein production: [3H]-proline
Description: Human dermal fibroblasts grown from explant skin cultures at less than 10 subpassages were plated at 5×10^4 cells per well in 24 well Costar tissue culture plates and were grown to confluency. Complete MEM was then changed to serum free Complete MEM without non-essential amino acids. After 24 hours, culture medium was changed (450 μl/well) to the same and secosteroids listed in Table 14 were added in 10 μl absolute alcohol (ETOH) to a final concentration of 10^−9 and M, 3 replicate wells each. Vehicle control wells (n=6) contained 10 μl (ETOH). After 2 hour pre-incubation, hr TGF-b1 (R and D systems) was added to each well except ETOH wells at a final concentration of 5 ng/ml. After 48 hours of culture, plate wells were paused with 1μ Cl ^3[H]-proline. After 24 hours, culture supernatants were harvested and collagenase sensitive protein was determined as previously described (44).

[5] = test system: involucrin; test: Real-time RT PCR involucrin mRNA, normal human epidermal keratinocytes; assay type: cell-based; settings: 10^−8 M
Description: (§1) RNA was extracted using an Absolutely RNA RT-PCR Miniprep Kit (Stratagene, La Jolla, Calif.). Real time PCR and reverse transcription products were purchased from Applied Biosystems, Foster City, Calif. Reverse transcription was performed using Taqman® Reverse Transcription Reagents. The following PCR products were used: cytokeratin 14: Hs00265033_m1, involucrin: Hs00846307_s1, CYP27A1: Hs00168003_ml, CYP27B1: Hs00168017_ml, 18SrRNA: Hs99999901_s1. The reaction was performed with Taqman® Universal PCR Master Mix; data were collected on an ABI Prism 7700 and analyzed on Sequence Detector 1.9.1. Specific gene amounts were related to 18SrRNA by comparative CT method.

[6] = test system: CYP27B1; test: Real-time RT PCR CYP27B1 mRNA, normal epidermal keratinocytes; assay type: cell-based, human; settings: 10^−8 M
Description: as §1

[7] = test system: HaCaT keratinocytes; test: Colony forming (clonogenicity) assay in HaCaT keratinocytes; assay type: cell-based, human; settings: 10 days
Description: HaCaT and human adult epidermal keratinocytes were cultured and DNA synthesis experiments were performed as described previously (26). Cells were plated in 6-well plates at a density of 20 cells/cm^2 in DMEM (Cellgro, Herndon Va.) containing 5% charcoal-treated fetal bovine serum (Hyclone, Logan, Utah), 1% antibiotic solution (PSA, Sigma, St. Louis, […].) and vehicle or secosteroids. Cells were incubated in 37° C. for 10 days with media being changed every 72 hr. Cells were fixed with 4% paraformaldehyde in PBS overnight, stained with 0.5% crystal violet in PBS for 15 min, rinsed and air-dried. The number and size of the colonies were measured using an ARTEK counter 880 (Dynex Technologies Inc., Chantilly, Va.). Colony forming units were calculated as follows: number of colonies (size>0.5 mm) was divided by the number of cells plated and multiplied by 100.

[8] = test system: normal epidermal keratinocytes; test: Flow cytometry DNA content, normal epidermal keratinocytes; assay type: cell-based, human; settings: 10 nM
[9] = test system: CYP27A1; test: Real-time RT PCR CYP27A1 mRNA, normal epidermal keratinocytes; assay type: cell-based, human; settings: 10^−8 M
Description: as §1

## C=C1CC[C@H](O)C/C1=C/C=C1\CCC[C@]2(C)[C@@H](C(C)(O)CC(O)CC(C)C)CC[C@@H]12 (stereo partly drawn) [20,23-dihydroxycholecalciferol, (5Z,7E)-9,10-secocholesta-5,7,10(19)-triene-3β,20,23-triol]
[1]
  NFκB-Luc activity: inhibition
[2]; Sk Mel 188, 0.1 nM and 100 nM
  less colonies bigger than 0.5 mm: approximately 50%

## C=C1/C(=C\C=C2/CCC[C@]3(C)[C@@H]([C@H](C)CCCC(C)(C)O)CC[C@@H]23)C[C@@H](O)C[C@@H]1O [1α,25-dihydroxycholecalciferol, (5Z,7E)-9,10-secocholesta-5,7,10(19)-triene-1α,3β,25-triol, reference compound]
[3]
  stimulation of transcriptional activity of the CYP24 promoter: ~21 fold
[4]
  TGF-b1 induced collagen protein production: inhibited TGF-b1 induced collagen protein production
[5]; 6 h
  stimulation of involucrin mRNA: ~3.1 fold
[6]; 1 h
  inhibition of CYP27B1 expression: ~1.5 fold
[7]; Homo sapiens, HaCaT, 240 h, 10^−8 M, read-out: inhibition of colony formation
  inhibition at 0.01 µM: 64%
[8]; 24 h
  cells in G1/0: 52±2%
  cells in G2/M: 35±5%
  cells in S phase: 13±7%
[9]; 24 h
  inhibition of CYP27A1 expression: ~2.9 fold

## C=C1CC[C@H](O)C/C1=C/C=C1\CCC[C@]2(C)[C@@H](C(C)=O)CC[C@@H]12 [pD3, (5Z,7E)-3β-hydroxy-9,10-secopregna-5,7,10(19)-trien-20-one]
[4]
  TGF-b1 induced collagen protein production: inhibited TGF-b1 induced collagen protein production
[4]; hrTGF-b1 5 ng/ml, secosteroids at 10^−10M, 3[H]-proline
  Collagen CPM/Well (mean ± SEM) × 10^−5 FB: 181 ± 14 CPM/Well × 10^−5 FB
[1]
  NFκB-Luc activity: inhibits NFκB-Luc activity
[2]; SKMEL-188, dose dependent
  colony formation on soft agar: suppress colony formation on soft agar

## C=C1CC[C@H](O)C/C1=C/C=C1\CCC[C@@]2(C)[C@H]1CC[C@@H]2[C@@](C)(O)CCCC(C)C [20(OH)D3, (5Z,7E)-9,10-secocholesta-5,7,10(19)-triene-3β,20-diol]
[3]
  stimulation of transcriptional activity of the CYP24 promoter: ~2.5 fold
[4]
  TGF-b1 induced collagen protein production: inhibited TGF-b1 induced collagen protein production
[5]; 6 h
  stimulation of involucrin mRNA: 4.7 fold
[5]; 24 h
  stimulation of involucrin mRNA: 1.8 fold
[6]; 1 h
  inhibition of CYP27B1 expression: ~4 fold
[6]; 48 h
  inhibition of CYP27B1 expression: ~2 fold
[7]; 10^−7 M
  inhibition of colony formation: 58%
[7]; 10^−8 M
  inhibition of colony formation: 36%
[8]; 48 h
  cells in G1/0: 52±5%
  cells in G2/M: 35±8%
  cells in S phase: 13±12%
[9]; 24 h
  inhibition of CYP27A1 expression: ~3.5 fold
[9]; 48 h
  inhibition of CYP27A1 expression: ~2.6 fold
